The values that follow come from BindingDB's records for doi:10.1016/j.ejmech.2021.113485 (Samara State Technical University, 2021).

The assay in a line: Inhibition of p37 in Vaccinia virus Copenhagen infected in African green monkey Vero cells assessed as reduction in viral reproduction incubated for 4 days by neutral red dye based colorimetric analysis.
The IC50 is the midpoint of a concentration-inhibition curve. For the compound `O=C(NNC1C2CC3CC(C2)CC1C3)c1ccc(C(F)(F)F)cc1` (stereo not drawn), the IC50 was 2.8 µM.

As to `CC12CC3CC(C)(C1)CC(C(=O)NNC(=O)c1ccc(C(F)(F)F)cc1)(C3)C2`, the IC50 turned out to be 30.9 µM.

Turning to `CC12CC3CC(C1)CC(NC(=O)c1ccc(C(F)(F)F)cc1)(C3)C2`, the IC50 amounted to 8.98 µM.

With `O=C(NC12CC3CC(CC(C3)C1)C2)c1ccc(C(F)(F)F)cc1`, the IC50 turned out to be 0.133 µM.

For the compound `O=C(NNC(=O)C12CC3CC(CC(C3)C1)C2)c1ccc(C(F)(F)F)cc1`, the IC50 worked out at 1.07 µM.

`O=C(NCC12CC3CC(CC(C3)C1)C2)c1ccc(Br)cc1`: the half-inhibitory concentration (IC50) turned out to be 8.3 µM.

As for `CC(NNC(=O)c1ccc(C(F)(F)F)cc1)C12CC3CC(CC(C3)C1)C2` (stereo not drawn), the concentration for half-maximal inhibition (IC50) was 0.515 µM.

Turning to `O=C(NC1C2CC3CC(C2)CC1C3)c1ccc(Br)cc1` (stereo not drawn), the IC50 was determined as 3.06 µM.

For `O=C(NC1C2CC3CC(C2)CC1C3)c1ccc(C(F)(F)F)cc1` (stereo not drawn), the IC50 came out at 0.216 µM.

In the case of `O=C(NNC1C2CC3CC1CC(Cl)(C3)C2)c1ccc(C(F)(F)F)cc1` (stereo not drawn), the IC50 is 3.52 µM.

For `CCC12CC3CC(C1)CC(NNC(=O)c1ccc(C(F)(F)F)cc1)(C3)C2`, the IC50 turned out to be 1.66 µM.

With `CN(C(=O)c1ccc(C(F)(F)F)cc1)C12CC3CC(CC(C3)C1)C2`, the IC50 was found to be 4.85 µM.

In the case of `O=C(NN1C(=O)[C@@H]2[C@@H]3C=C[C@@H]([C@H]4C[C@@H]34)[C@@H]2C1=O)c1ccc(C(F)(F)F)cc1` [Tecovirimat], the IC50 was 0.0027 µM.

`CCC12CC3CC(C1)CC(C(=O)NNC(=O)c1ccc(C(F)(F)F)cc1)(C3)C2`: the IC50 stood at 12.5 µM.

Turning to `O=C(NNC(=O)c1ccc(C(F)(F)F)cc1)NC12CC3CC(CC(C3)C1)C2`, the 50% inhibitory concentration (IC50) came out at 36.3 µM.

Turning to `O=C(NCC12CC3CC(CC(C3)C1)C2)c1ccc(C(F)(F)F)cc1`, the IC50 amounted to 0.27 µM.

Take `CCC12CC3CC(C1)CC(NC(=O)c1ccc(C(F)(F)F)cc1)(C3)C2`: the IC50 came out at 4.1 µM.

Consider `O=C(NN=C1C2CC3CC(C2)CC1C3)c1ccc(C(F)(F)F)cc1`, for which the IC50 was 198 µM.
